Source: ChEMBL document CHEMBL1159232, “Bipolal: anti-microalgal compound isolated as a candidate for marine antifouling produced by Bipolaris sp. F5206” (1995)
Converted amounts (≈) assume the structure as drawn.

System: Trichophyton mentagrophytes
Assay: Antimicrobial activity against Trichophyton mentagrophytes by microbroth dilution method
Format: functional

- MIC: 1.58 µg/mL (≈ 3.96 µM)
Compound: C=C(C=O)[C@]1(O)C[C@@]2(C)C(=CC1=O)C=C[C@H](OC(=O)/C=C/C=C/[C@@H](C)CC)[C@@H]2C
